In patent US12194040B2, “FAK inhibitor and drug combination thereof” (HINOVA PHARMACEUTICALS INC., priority 2018, dated 2025):
One block for each compound: values may come before it.

Experiments:
FAK enzyme = FAK enzyme (Homo sapiens, UniProt Q05397); assay: Inhibitory activity on FAK enzyme (HTRF, Sa-XL665 / TK antibody-Eu3+); type: biochemical
Protocol: By referring to literature methods (Cancer Res. 2008, 68, 1935), the experiment of inhibitory activity on FAX enzyme was carried out. The details are as follows: the test compound was diluted to 1000 nM, and then subjected to 1:3 serial dilution with DMSO. 0.1 L of the solution was transferred into a 384-well plate, and 2 replicate wells were set up for each concentration. 5 µL of 2 FAK enzyme solution was added, then centrifuged at 1000 rpm for 1 min, and incubated at 25° C. for 15 min. 5 L of 2× substrate solution was added and incubate at 25° C. for 60 min. Then, 5 µL of Sa-XL665 solution and 5 μL of TK antibody-Eu3+ were added, and centrifuged at 1000 rpm for 1 min, then incubated at 25° C. for 60 min. Finally, Envision 2104 plate reader was used to read the fluorescence signal, and calculate the half inhibitory concentration IC50 of each compound on FAX enzyme.

MC38 tumor model = assay: Pharmacodynamic experiment on MC38 tumor animal model; type: in vivo, C57BL/6 mice; conditions: MC38, group 4: compound 44 50 mg/kg p.o. QD × 21; day 18
Protocol: Cell culture: MC-38 cells are cultured in DMEM medium containing 10% fetal bovine serum (FBS). MC-38 cells in logarithmic growth phase were collected, and resuspended in HBSS to a concentration suitable for subcutaneous tumor inoculation in C57BL/6 mice.
Experimental animals: C57BL/6 mice, female, 6-8 weeks old, weighing about 18-20 g, 96 mice, purchased from Beijing Vital River Experimental Animal Technology Co., Ltd.
Tumor cell inoculation: Tumor cells in logarithmic growth phase were collected, and the cell concentration was adjusted to 5×10^6/mL with HBSS, then 0.1 mL was subcutaneously inoculated on the right side of each mouse near the back, that is, 5×10^5/mouse. Then, the tumor volume was observed and measured. When the average tumor volume of the mice grew to 50-100 mm^3, the tumor-bearing mice were randomly grouped according to the tumor volume and administered. The detailed information was shown in Table 3, and the day of grouping and administration was defined as day 0.
Calculation of tumor volume: The mice were sacrificed on the 18th day, the tumor was taken out, the tumor volume was measured, and the tumor inhibition rate of each group was calculated.

PAN-02 tumor model = assay: Pharmacodynamic experiment on PAN02 tumor animal model; type: in vivo, C57BL/6 mice; conditions: PAN-02, group 4: compound 44 25 mg/kg i.g. BID; 33 days
Description: The PAN-02 cells in the logarithmic growth phase were collected, washed twice with PBS, and then resuspended in pre-cooled PBS for inoculation. The experimental animals were C57BL/6 mice, females, purchased from Beijing Vital River Experimental Animal Technology Co., Ltd. C57BL/6 mice were adapted to the laboratory environment for 3 days. PAN-02 cells were subcutaneously inoculated into the right ribs, and the amount of cells inoculated was 1×10^6/mouse. When the tumor grew to about 100 mm^3, they will be screened and randomly grouped. Each group included 8 mice. According to Table 4, mice were grouped and administrated as the dosing regimen. The day of grouping and administration was defined as day 1, and the administration period was 33 days.

[1] = Pharmacokinetic test in rats (PO, 10 mpk); type: in vivo; conditions: male SD rats, PO (gavage), plasma
Protocol: An appropriate amount of test drug (10 mg) was accurately weighed, and 0.25 ml of N,N-dimethylacetamide (DMA) was first added to dissolve it, then 0.5% sodium carboxymethyl cellulose (CMC-Na) was slowly added to 5 ml. The mixture was sonicated, vortexed, and mixed well. 0.2 ml of the final solution prepared above was taken out and stored at −20° C. for the concentration determination.
After fasted overnight (free drinking water), three healthy adult male SD rats (180-250 g, purchased from Chengdu Dossy Experimental Animal Co., Ltd.) were administered by gavaging with a volume of 5 ml/kg; Prior to administration, as well as 0.5 h, 1 h, 2 h, 4 h, 6 h, 8 h, 12 h, 24 h after administration, 0.1 ml of blood was collected from the retroorbital venous plexus, centrifuged at 4° C. for 5 min to separate the plasma, and stored at −20° C. for testing. Then, LC/MS/MS method was used to determine the concentration of the test compound in the plasma.

Chain of FAK enzyme (Q05397 whole entry, species assumed): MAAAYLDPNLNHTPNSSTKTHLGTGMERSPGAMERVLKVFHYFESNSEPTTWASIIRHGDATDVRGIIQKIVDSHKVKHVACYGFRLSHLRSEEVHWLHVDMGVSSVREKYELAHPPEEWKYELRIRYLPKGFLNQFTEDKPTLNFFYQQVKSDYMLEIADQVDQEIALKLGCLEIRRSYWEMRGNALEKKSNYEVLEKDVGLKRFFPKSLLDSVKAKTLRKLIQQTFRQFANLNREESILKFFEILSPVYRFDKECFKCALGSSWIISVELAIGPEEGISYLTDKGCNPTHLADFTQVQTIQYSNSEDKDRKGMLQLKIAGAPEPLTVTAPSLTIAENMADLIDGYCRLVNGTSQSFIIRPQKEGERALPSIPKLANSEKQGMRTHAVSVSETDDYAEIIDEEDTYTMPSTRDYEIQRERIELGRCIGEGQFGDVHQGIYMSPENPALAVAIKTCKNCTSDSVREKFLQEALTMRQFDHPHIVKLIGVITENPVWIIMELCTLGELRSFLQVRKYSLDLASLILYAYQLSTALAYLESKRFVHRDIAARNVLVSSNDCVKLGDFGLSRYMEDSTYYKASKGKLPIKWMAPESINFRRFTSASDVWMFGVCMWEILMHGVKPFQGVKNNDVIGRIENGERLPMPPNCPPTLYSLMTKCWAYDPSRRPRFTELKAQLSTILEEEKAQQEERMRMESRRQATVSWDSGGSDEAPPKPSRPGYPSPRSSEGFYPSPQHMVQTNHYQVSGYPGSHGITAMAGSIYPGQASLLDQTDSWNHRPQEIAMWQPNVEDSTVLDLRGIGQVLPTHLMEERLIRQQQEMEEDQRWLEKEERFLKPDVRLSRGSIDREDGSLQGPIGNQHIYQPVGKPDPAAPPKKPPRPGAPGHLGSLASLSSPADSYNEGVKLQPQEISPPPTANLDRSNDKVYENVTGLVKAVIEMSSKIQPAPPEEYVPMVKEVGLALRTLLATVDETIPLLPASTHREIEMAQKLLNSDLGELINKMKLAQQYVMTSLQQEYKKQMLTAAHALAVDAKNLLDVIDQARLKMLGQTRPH

IC50 (FAK enzyme): 0.15 nM
Compound: N-deuteromethyl-4-((4-(((3-(N-deuteromethanesulfonamido) pyrazin-2-yl)deuteromethyl)amino)-5-(trifluoromethyl)pyrimidine-2-yl)amino)benzamide [Compound 45]

Compound: [2H]C([2H])([2H])NC(=O)c1ccc(Nc2ncc(C(F)(F)F)c(NCc3nccnc3N(C([2H])([2H])[2H])S(C)(=O)=O)n2)cc1 [Compound 44, N-trideuteromethyl-4-((4-(((3-(N-trideuteromethylmethanesulfonamido)pyrazin-2-yl)methyl)amino)-5-(trifluoromethyl)pyrimidin-2-yl)amino)benzamide]
Tumor inhibition rate (MC38 tumor model): 26.9%
Tumor inhibition rate (PAN-02 tumor model): 66%

half life t1/2 [1]: 1.75 h
Compound: [2H]C([2H])([2H])NC(=O)c1ccc(Nc2ncc(C(F)(F)F)c(NCc3nccnc3N(C)S(C)(=O)=O)n2)cc1 [Compound 25, N-trideuteromethyl-4-((4-(((3-(N-methanesulfonamido)pyrazin-2-yl)methyl)amino)-5-(trifluoromethyl)pyrimidin-2-yl)amino)benzamide]
